Reference: US9073954B2, “5-substituted benzimidazolium compounds” (Boehringer Ingelheim International GmbH, priority 2013, dated 2015)

How the values were obtained:
[1] = Permeability in CALU-3 cells; format: in vitro ADME; details: human, CALU-3 monolayers, 10 μM compound, pH 7.4, 37° C.; for Papp A→B at 90 min, 10 μM: apical-to-basal; for Papp B→A at 90 min, 10 μM: basal-to-apical
Procedure: Permeability in CALU-3 Cells:
Permeability measurements across polarized, confluent CALU-3 cell monolayers grown on permeable filter supports are used to provide information on the potential of a compound to pass the lung epithelium. Apparent permeability coefficients (Papp) of the compounds across the CALU-3 cell monolayers are measured (pH 7.4, 37° C.) in apical-to-basal (AB) and basal-toapical (BA) transport direction.
CALU-3 cells (1-2×10^5 cells/1 cm^2 area) are seeded on filter inserts (Costar transwell polycarbonate filters, 0.4 μm pore size) and cultured (for 10-12 days DMEM) until tight monolayers are formed. Compounds of interest are dissolved in appropriate solvent (DMSO, 10 mM stock solution). Stock solutions are diluted with HTP-4 buffer (128.13 mM NaCl, 5.36 mM KC, 1 mM MgSO4, 1.8 mM CaCl2, 4.17 mM NaHCO3, 1.19 mM Na2HPO4×7H2O, 0.41 mM NaH2PO4xH2O, 15 mM HEPES, 20 mM glucose, 0.25% BSA, pH 7.4) to prepare the transport solutions (10 μM compound, final DMSO<=0.5%). The transport solution (TL) is applied to the apical or basolateral donor side for measuring A-B or B-A permeability (3 filter replicates), respectively. The receiver side contains the same buffer as the donor side. After 30 min of accommodation, samples are collected at the start t0=0 min and at the end of the experiment tn=90 min from the donor and at 0, 30, 60, and 90 min also from the receiver chamber. Volume removed is replenished by HTP-4 buffer. The compound concentration in the samples is measured by HPLC-MS/MS or scintillation counting. The permeability coefficient (Papp) and efflux ratio are calculated according to: Papp [cm/s]=(concentration receiver [nM]*volume receiver [mL]/time interval [sec])*(1/filter area)*(1/donor concentration [nM])
With example compounds given above, the following permeability values were determined in the CALU-3 cells assay: […]

[2] = target: T1, ENaC (Epithelial Sodium Channel) (Mus musculus, UniProt Q61180+Q9WU38+Q9WU39); test: Ussing chamber: short circuit current in M-1 cells; format: cell-based; details: Ussing chamber, mouse kidney M-1 cells, amiloride sensitive I_SC, apical application, 37° C.; read-out: IC50
T1 construct: Mouse kidney M-1 cells were cultivated in DMEM; endogenous in cells; host or cells: mouse kidney M-1 cells
T1 sequence (Q61180 1-699): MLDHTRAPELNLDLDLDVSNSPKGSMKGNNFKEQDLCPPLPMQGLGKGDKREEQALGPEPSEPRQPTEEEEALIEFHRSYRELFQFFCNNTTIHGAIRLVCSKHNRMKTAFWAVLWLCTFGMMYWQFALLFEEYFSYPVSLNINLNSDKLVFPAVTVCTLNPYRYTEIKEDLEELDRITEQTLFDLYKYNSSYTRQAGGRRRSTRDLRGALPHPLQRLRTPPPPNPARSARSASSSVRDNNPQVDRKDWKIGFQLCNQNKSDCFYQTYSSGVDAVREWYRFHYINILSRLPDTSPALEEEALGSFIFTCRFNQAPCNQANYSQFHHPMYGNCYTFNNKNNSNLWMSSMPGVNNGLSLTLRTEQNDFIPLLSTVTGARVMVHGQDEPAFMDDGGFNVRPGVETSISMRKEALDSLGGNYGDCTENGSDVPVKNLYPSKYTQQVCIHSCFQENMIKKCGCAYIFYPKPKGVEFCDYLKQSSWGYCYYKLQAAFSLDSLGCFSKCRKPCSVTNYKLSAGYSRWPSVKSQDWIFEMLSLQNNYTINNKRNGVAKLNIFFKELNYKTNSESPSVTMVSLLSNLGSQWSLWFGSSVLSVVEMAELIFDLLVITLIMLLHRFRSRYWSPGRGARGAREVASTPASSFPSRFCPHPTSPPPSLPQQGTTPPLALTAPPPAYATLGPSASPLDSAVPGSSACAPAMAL
T1 sequence (Q9WU38 1-638): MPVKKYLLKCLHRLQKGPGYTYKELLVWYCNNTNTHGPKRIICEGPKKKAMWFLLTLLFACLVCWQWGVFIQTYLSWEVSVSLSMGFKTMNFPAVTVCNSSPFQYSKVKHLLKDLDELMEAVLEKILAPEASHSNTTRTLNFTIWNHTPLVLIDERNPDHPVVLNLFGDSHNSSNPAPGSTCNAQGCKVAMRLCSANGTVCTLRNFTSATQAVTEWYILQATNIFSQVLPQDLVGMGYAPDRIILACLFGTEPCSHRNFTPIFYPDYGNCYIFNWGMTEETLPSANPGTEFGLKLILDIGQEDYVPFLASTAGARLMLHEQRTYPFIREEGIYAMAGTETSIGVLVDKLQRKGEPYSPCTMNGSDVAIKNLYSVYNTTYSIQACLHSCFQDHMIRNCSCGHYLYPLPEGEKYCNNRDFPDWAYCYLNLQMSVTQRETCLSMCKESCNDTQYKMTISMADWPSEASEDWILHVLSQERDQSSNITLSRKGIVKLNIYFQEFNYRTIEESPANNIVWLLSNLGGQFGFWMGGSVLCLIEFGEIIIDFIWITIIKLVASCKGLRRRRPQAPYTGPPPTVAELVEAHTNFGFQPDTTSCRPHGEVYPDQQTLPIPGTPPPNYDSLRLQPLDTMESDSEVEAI
T1 sequence (Q9WU39 1-655): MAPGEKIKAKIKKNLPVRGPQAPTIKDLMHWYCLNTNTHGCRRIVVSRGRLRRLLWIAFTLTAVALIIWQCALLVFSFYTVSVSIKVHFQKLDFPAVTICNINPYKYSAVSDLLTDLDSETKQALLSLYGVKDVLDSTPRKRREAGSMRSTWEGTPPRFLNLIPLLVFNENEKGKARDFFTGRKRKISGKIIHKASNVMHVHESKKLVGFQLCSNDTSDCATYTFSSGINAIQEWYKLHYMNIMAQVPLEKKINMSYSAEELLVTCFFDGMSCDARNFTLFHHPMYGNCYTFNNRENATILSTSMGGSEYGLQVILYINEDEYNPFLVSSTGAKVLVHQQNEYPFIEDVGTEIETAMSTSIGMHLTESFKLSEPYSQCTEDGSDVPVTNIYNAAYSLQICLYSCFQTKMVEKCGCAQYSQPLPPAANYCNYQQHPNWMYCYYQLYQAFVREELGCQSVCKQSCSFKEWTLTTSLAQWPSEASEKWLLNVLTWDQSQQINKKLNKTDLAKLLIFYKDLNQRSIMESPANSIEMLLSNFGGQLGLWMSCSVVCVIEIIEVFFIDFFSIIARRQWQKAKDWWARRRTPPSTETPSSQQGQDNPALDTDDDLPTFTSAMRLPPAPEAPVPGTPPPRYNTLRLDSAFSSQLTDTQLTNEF
Procedure: Mouse kidney M-1 cells were cultivated in DMEM containing 5% FCS and 5 μM dexamethasone for 10 to 12 days on polyester transwell filters. Filters were inserted into a teflon-coated well-plate which fit into the ussing chamber system. Prior to measurement the medium of M-1 cells was replaced with Caco-2 transport buffer (Invitrogen, Germany). During measurements, the Ussing chamber temperature was kept at 37° C. Short circuit currents (I_sc) were measured in the voltage-clamp mode with the software package Lab View for data acquisition and analysis. The transepithelial electrical resistance (TEER) was determined by the application of voltage steps of ±5 mV every 5 sec. Compounds were administered at a final concentration of 3 μM or at increasing concentrations (1-3-10 μM) to the apical solution. At the end of each experiment the amiloride sensitive I_SC was measured by adding 3 μM amiloride to the apical compartment. Results are expressed as inhibition in percent of the amiloride effect or as IC50.
With the example compounds given above, the following IC50 values were determined in the Ussing Chamber assay: […]

Compound | Papp A→B at 90 min, 10 μM [1] [×10⁻⁶ cm/s] | Papp B→A at 90 min, 10 μM [1] [×10⁻⁶ cm/s] | IC50 [2] [nM]
CCn1c(CNC(=O)c2nc(Cl)c(N)nc2N)[n+](C)c2cc(Cl)c(OCCOCCOC)cc21 [Example 3.8] | 0.2 | 0.2 | 0.4
CCn1c(CNC(=O)c2nc(Cl)c(N)nc2N)[n+](CC)c2cc(F)c(C(=O)N3CCOCC3)cc21 [Example 3.12] | 0.1 | 0.2 | 0.4
CCn1c(CNC(=O)c2nc(Cl)c(N)nc2N)[n+](CC)c2ccc(CNC(=O)CN(C)C)cc21.[Cl-] [Example 7.1] | < 0.9 | 0.2 | 2
